Read-outs that look alike come from different tables or passages of the source. Residues, ends and D or L forms follow the SMILES beside them. No end group written: not given here.
Legend:
Assay type in all cases: cell-based
[1] = target: T1, BB3 (Homo sapiens, UniProt P32247); assay: IP1 accumulation (Gq/11), HTRF; conditions: mean, SEM and n (2-4)
T1 construct: hIL-2Ra signal peptide (N); expressed in transfected cells
T1 sequence (P32247 2-399 limits assumed): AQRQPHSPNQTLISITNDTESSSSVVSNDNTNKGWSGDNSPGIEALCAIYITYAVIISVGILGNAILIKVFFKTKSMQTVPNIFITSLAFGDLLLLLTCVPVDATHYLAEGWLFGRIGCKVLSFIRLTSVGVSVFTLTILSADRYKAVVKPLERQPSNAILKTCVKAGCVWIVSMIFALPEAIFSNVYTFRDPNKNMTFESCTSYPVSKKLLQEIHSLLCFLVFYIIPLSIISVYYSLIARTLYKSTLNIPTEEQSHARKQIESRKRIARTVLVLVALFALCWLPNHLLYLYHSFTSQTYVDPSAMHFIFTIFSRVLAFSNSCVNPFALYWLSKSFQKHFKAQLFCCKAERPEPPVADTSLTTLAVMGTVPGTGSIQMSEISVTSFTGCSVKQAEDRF

[2] = target: T1, BB3; assay: Dynamic mass redistribution (DMR), concentration-response; conditions: mean, SEM and n (3)
[3] = target: GPR55 (Homo sapiens, UniProt Q9Y2T6); assay: Real-time receptor internalization (TR-FRET), concentration-response; design: hIL-2Ra signal peptide (N); expressed in transfected cells
Procedure: 48 hr prior to parallel assaying, SNAP-tagged oGPCR cells were plated (10,000 cells/well) in fibronectin-coated 384-well Epic biosensor microplates (Corning) and poly-D-lysine coated white 384-well plates (for internalization assays). SNAP- GLP-1 receptor was plated alongside orphan receptor cells as an internal assay control for internalization assays. Receptor-expression was induced with 0.1 μg/ml doxycycline.
A TR-FRET real-time internalization assay was used to examine peptide-dependent changes in orphan receptor localization as described previously ([Foster and Bräuner-Osborne, 2018]). Surface-expressed SNAP-tagged receptors were labeled with a cell-impermeable luminescent terbium cryptate (100 nM SNAP Lumi4-Tb; Cisbio, France) for 1 hr at 37°C. Cells were washed to remove excess terbium and incubated with fluorescein-O-acetic acid (100 μM; Sigma Aldrich) for 5 min at 37°C. Peptides were added as for DMR assays, and internalization responses were recorded for 60 min at 37°C using an EnVision 2104 Multimode plate reader (PerkinElmer). 100 nM GLP-1 was used as a positive control for SNAP-GLP1R internalization. Real-time internalization responses were calculated based on TR-FRET (excitation 340 nm; emission 520 nm and 615 nm), and were expressed as the ratio between donor (terbium) and acceptor (fluorescein) emission. For peptide screening analysis (both DMR and internalization assays), we calculated the area under the curve from the real-time traces. […] Validation experiments for receptor internalization were performed as above. Internalization data was processed in MS-Excel and area under the curve was used to generate concentration-response curves using GraphPad Prism 7.0. Data represent mean ± standard error of the mean (SEM) from at least 3 biologically independent experiments.

[4] = target: T2, GPR1 (Homo sapiens, UniProt P46091); assay: β-arrestin recruitment (Tango), validation; design: host or cells: HTLA cells (HEK293-derived); conditions: receptor GPR1, mean, SEM and n (2-3); for EC50: read-out: b-arrestin recruitment assays (Tango) pEC50 (converted)
T2 sequence (P46091 1-355): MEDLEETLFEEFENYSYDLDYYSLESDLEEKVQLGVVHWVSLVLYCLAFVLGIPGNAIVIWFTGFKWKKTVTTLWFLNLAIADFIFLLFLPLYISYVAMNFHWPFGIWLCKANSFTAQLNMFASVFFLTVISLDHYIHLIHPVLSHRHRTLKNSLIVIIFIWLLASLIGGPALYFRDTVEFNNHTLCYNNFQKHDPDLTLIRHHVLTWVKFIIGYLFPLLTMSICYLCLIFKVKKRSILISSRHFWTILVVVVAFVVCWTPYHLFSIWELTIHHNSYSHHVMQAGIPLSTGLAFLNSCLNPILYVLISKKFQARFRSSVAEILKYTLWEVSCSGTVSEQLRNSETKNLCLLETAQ

[5] = target: T2, GPR1; assay: β-arrestin recruitment (PathHunter); conditions: receptor GPR1, mean, SEM and n (2-3); for EC50: read-out: b-arrestin recruitment assays (PathHunter) pEC50 (converted)
Procedure: PathHunter eXpress Assays (DiscoverX) were performed in 384-well format according to the manufacturer’s recommendations. GPR1 cells were incubated with peptides for 90 min and luminescence measured using an EnSpire 2300 Multimode plate reader (PerkinElmer).

[6] = receptor BB3, read-out: IP1 accumulation assays pEC50 (converted)
[7] = receptor GPR55, mean, SEM and n (3-4), read-out: Internalization assays pEC50 (converted)

GPR55, sequence (Q9Y2T6 2-319 limits assumed): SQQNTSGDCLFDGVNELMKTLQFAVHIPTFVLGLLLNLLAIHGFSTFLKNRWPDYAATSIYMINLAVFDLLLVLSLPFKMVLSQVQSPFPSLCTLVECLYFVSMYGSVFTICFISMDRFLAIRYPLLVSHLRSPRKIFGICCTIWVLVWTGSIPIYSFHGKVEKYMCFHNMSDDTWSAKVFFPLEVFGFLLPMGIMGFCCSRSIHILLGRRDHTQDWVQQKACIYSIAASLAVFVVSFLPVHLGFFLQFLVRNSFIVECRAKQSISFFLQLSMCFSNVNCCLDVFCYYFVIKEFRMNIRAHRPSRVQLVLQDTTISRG

Compound | EC50 [4] | EC50 [5] | other results
CSCC[C@H](NC(=O)[C@H](Cc1ccccc1)NC(=O)CNC(=O)CNC(=O)[C@@H](N)Cc1ccc(O)cc1)C(=O)O [158.1 (Phoenix)] |  |  | EC50 ([1]; IP1 accumulation assays pEC50, receptor BB3): 12.6 nM; EC50 ([2]; DMR assays pEC50, receptor BB3): 64.6 nM
CC(C)C[C@H](NC(=O)[C@H](CCCCN)NC(=O)[C@H](CCC(N)=O)NC(=O)[C@@H](NC(=O)[C@H](CCCCN)NC(=O)[C@H](CO)NC(=O)[C@H](Cc1ccc(O)cc1)NC(=O)[C@H](Cc1c[nH]cn1)NC(=O)[C@H](Cc1ccccc1)NC(=O)[C@H](CC(C)C)NC(=O)[C@@H](N)Cc1ccccc1)[C@@H](C)O)C(=O)NCC(=O)N[C@@H](CCCCN)C(=O)N[C@@H](CO)C(=O)N[C@@H](CC(N)=O)C(=O)N[C@H](C(=O)N[C@H](C(=O)N[C@@H](CO)C(=O)N[C@@H](CO)C(=O)N[C@H](C(=O)N[C@H](C(=O)N[C@@H](Cc1c[nH]cn1)C(=O)N1CCC[C@H]1C(=O)N[C@@H](CC(C)C)C(=O)N[C@@H](CC(C)C)C(=O)N[C@@H](CCC(N)=O)C(=O)N[C@@H](CC(C)C)C(=O)N[C@H](C(=O)N1CCC[C@H]1C(=O)N[C@@H](Cc1c[nH]cn1)C(=O)N[C@@H](CC(C)C)C(=O)N[C@@H](Cc1c[nH]cn1)C(=O)N[C@@H](CCC(=O)O)C(=O)O)C(C)C)C(C)C)C(C)C)C(C)C)C(C)C [Peptide 67.1] (H-FLFHYSKTQKLGKSNVVSSVVHPLLQLVPHLHE-OH) |  |  | EC50 [1, 6]: 4270 nM; EC50 ([2]; receptor BB3, read-out: DMR assays pEC50 (converted)): 32400 nM
CC[C@H](C)[C@H](NC(=O)[C@H](CC(=O)O)NC(=O)[C@@H](NC(=O)[C@H](Cc1ccc(O)cc1)NC(=O)[C@@H](NC(=O)CNC(=O)[C@H](CC(N)=O)NC(=O)[C@@H](NC(=O)[C@H](CC(C)C)NC(=O)[C@H](Cc1ccc(O)cc1)NC(=O)[C@H](CC(=O)O)NC(=O)[C@H](CC(C)C)NC(=O)[C@H](CCCNC(=N)N)NC(=O)[C@H](CO)NC(=O)[C@H](Cc1ccc(O)cc1)NC(=O)[C@H](CCCNC(=N)N)NC(=O)[C@@H](N)CCCCN)[C@@H](C)CC)[C@@H](C)CC)C(C)C)C(=O)O [Peptide 114] (H-KRYSRLDYLINGIYVDI-OH; N-terminus assumed) |  |  | EC50 ([3]; read-out: pEC50, internalization, GPR55 (converted)): > 10000 nM
CSCC[C@H](NC(=O)[C@H](CCCCN)NC(=O)[C@@H](NC(=O)[C@H](CC(C)C)NC(=O)[C@@H](NC(=O)[C@@H](NC(=O)CNC(=O)CNC(=O)CNC(=O)[C@H](C)NC(=O)[C@@H]1CCCN1C(=O)[C@H](CC(C)C)NC(=O)[C@@H]1CCCN1C(=O)[C@@H](N)C(C)C)[C@@H](C)O)C(C)C)[C@@H](C)O)C(=O)N[C@@H](Cc1ccc(O)cc1)C(=O)N1CCC[C@H]1C(=O)N[C@@H](CCCNC(=N)N)C(=O)O [Peptide 167.2] (H-VPLPAGGGTVLTKMYPR-OH) | 3020 nM | 2290 nM | EC50 [1, 6]: 525 nM
CC(C)C[C@H](NC(=O)[C@@H](NC(=O)[C@H](C)NC(=O)[C@H](C)NC(=O)[C@H](CC(C)C)NC(=O)[C@@H](N)Cc1ccc(O)cc1)C(C)C)C(N)=O [Peptide 168.2] (H-YLAAVL-NH2) |  |  | EC50 [3, 7]: 20400 nM
CSCC[C@H](NC(=O)[C@@H](N)CCC(N)=O)C(=O)N[C@@H](C)C(=O)N[C@H](C(=O)N[C@@H](CCCCN)C(=O)N[C@@H](CCCCN)C(=O)N[C@@H](Cc1ccc(O)cc1)C(=O)N[C@@H](CC(C)C)C(=O)N[C@@H](C)C(=O)N[C@@H](C)C(=O)N[C@H](C(=O)N[C@@H](CC(C)C)C(N)=O)C(C)C)C(C)C [Peptide 168.3] |  |  | EC50 [3, 7]: 0.219 nM
CC[C@H](C)[C@H](NC(=O)CNC(=O)[C@H](CC(=O)O)NC(=O)[C@H](CO)NC(=O)[C@@H](N)Cc1c[nH]cn1)C(=O)N[C@@H](Cc1ccccc1)C(=O)N[C@H](C(=O)N[C@@H](CC(=O)O)C(=O)N[C@@H](CO)C(=O)N[C@@H](Cc1ccc(O)cc1)C(=O)N[C@@H](CO)C(=O)N[C@@H](CCCNC(=N)N)C(=O)N[C@@H](Cc1ccc(O)cc1)C(=O)O)[C@@H](C)O [Peptide 168.4] (H-HSDGIFTDSYSRY-OH) |  |  | EC50 [3, 7]: 316 nM
CC[C@H](C)[C@H](NC(=O)[C@H](CCCNC(=N)N)NC(=O)[C@H](Cc1c[nH]cn1)NC(=O)[C@H](CO)NC(=O)[C@@H]1CCCN1C(=O)[C@H](CC(=O)O)NC(=O)[C@H](CC(C)C)NC(=O)[C@H](CC(N)=O)NC(=O)[C@H](CCC(N)=O)NC(=O)[C@H](CC(C)C)NC(=O)[C@H](CC(N)=O)NC(=O)[C@H](CCCCN)NC(=O)[C@@H](NC(=O)[C@@H](NC(=O)[C@H](CO)NC(=O)[C@H](CCSC)NC(=O)[C@H](CCCNC(=N)N)NC(=O)CNC(=O)[C@H](CO)NC(=O)[C@@H]1CCCN1C(=O)[C@H](C)NC(=O)[C@@H](N)CCCCN)[C@@H](C)CC)C(C)C)C(=O)N[C@@H](CO)C(=O)N[C@@H](CC(=O)O)C(=O)N[C@@H](CCCNC(=N)N)C(=O)N[C@@H](CC(=O)O)C(=O)N[C@@H](Cc1ccc(O)cc1)C(=O)N[C@@H](CCSC)C(=O)NCC(=O)O [Peptide 194.4] (H-KAPSGRMSIVKNLQNLDPSHRISDRDYMG-OH) | 93.3 nM | 0.224 nM | 
CC[C@H](C)[C@H](NC(=O)[C@H](CCCNC(=N)N)NC(=O)[C@H](Cc1c[nH]cn1)NC(=O)[C@H](CO)NC(=O)[C@@H]1CCCN1C(=O)[C@H](CC(=O)O)NC(=O)[C@H](CC(C)C)NC(=O)[C@H](CC(N)=O)NC(=O)[C@H](CCC(N)=O)NC(=O)[C@H](CC(C)C)NC(=O)[C@H](CC(N)=O)NC(=O)[C@H](CCCCN)NC(=O)[C@@H](NC(=O)[C@@H](NC(=O)[C@H](CO)NC(=O)[C@H](CCSC)NC(=O)[C@H](CCCNC(=N)N)NC(=O)CNC(=O)[C@H](CO)NC(=O)[C@@H]1CCCN1C(=O)[C@H](C)NC(=O)[C@@H](N)CCCCN)[C@@H](C)CC)C(C)C)C(=O)N[C@@H](CO)C(=O)N[C@@H](CC(=O)O)C(=O)N[C@@H](CCCNC(=N)N)C(=O)O [Peptide 194.5] (H-KAPSGRMSIVKNLQNLDPSHRISDR-OH) | 22.9 nM | 0.135 nM | 
KAPSGRMSIVKNLQNLDPSHRISDRDYMGWMDFGRRSAEEYEYPS [Peptide 194.6] | 75.9 nM | 28200 nM | b-arrestin recruitment assays (Tango) Emax (fold change) [4]: 2.0 fold change; b-arrestin recruitment assays (PathHunter) Emax (fold change) [5]: 4.0 fold change
KRSFSGFGSPLDRLSAGSVDHKGKQRKVVDHPKRRFGIPMDRI [Peptide 141.4] | 10200 nM | 39.8 nM | 
SFSGFGSPLDRLSAGSVDHKGKQRKVVDHPKRRFGIPMDRI-NH2 [Peptide 141.7] | 26900 nM | 575 nM | 
